One data set concerns the target EGFR (Homo sapiens (Human), UniProt P00533). Put plainly: ErbB Enzyme Assay (HTRF KinEASE-TK), Assay 3. Type of data set: biochemical.
A further data set has as its target ErbB2 WT (Homo sapiens (Human), UniProt P04626). Put plainly: ErbB Enzyme Assay (HTRF KinEASE-TK), Assay 2. In kind it is biochemical. (In general: In TR-FRET formats the signal depends on donor and acceptor labels being close together.)
The target in data set [1] is ErbB2 with Exon 20 YVMA insertion (HER2-YVMA) (Homo sapiens (Human), UniProt P04626, INS775YVMA). The data set is described as follows: Cellular Phosphorylation Assay, Assay 4 (constitutive ErbB2 phosphorylation, NIH 3T3 cells). In kind it is cell-based.
Another data set deals with BCRP (Homo sapiens (Human), UniProt Q9UNQ0). The data set is described as follows: BCRP MDCKII efflux assay (Assay 7). Type of data set: in vitro ADME. The settings on record: dog; efflux ratio Papp(B-A)/Papp(A-B), BCRP MDCKII cells; read-out: Assay 7 Pe Ratio. Here is the method: Assay conditions included with and without the BCRP-specific inhibitor, KO143, at a concentration of 0.3 μM to ascertain the contribution of BCRP to the efflux value of the test compound.
Sequence of BCRP (Q9UNQ0 whole entry): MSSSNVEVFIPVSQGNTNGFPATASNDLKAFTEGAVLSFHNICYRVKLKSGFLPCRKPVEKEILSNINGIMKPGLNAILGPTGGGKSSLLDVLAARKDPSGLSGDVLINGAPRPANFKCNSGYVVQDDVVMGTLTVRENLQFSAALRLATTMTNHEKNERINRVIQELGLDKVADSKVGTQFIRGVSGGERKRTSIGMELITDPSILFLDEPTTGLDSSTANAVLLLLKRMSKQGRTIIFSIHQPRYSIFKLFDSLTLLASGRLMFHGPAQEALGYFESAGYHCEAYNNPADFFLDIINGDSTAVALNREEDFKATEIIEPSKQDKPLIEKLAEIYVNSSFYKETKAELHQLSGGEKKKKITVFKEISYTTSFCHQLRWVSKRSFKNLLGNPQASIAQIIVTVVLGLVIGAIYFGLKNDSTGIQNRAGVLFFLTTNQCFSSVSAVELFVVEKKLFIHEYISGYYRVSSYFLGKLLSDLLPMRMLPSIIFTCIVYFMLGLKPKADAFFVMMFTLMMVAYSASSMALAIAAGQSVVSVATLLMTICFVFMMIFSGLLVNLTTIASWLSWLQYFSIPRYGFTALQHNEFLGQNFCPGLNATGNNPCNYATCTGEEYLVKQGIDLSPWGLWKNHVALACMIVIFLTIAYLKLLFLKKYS
Final organic concentration in the assay was 1%.

The target in a further data set is EGFR wild type (EGFR WT) (Homo sapiens (Human), UniProt P00533). Put plainly: Cellular Phosphorylation Assay, Assay 5 (EGF-stimulated EGFR phosphorylation, NIH 3T3 cells). In kind it is cell-based.
Sequence of EGFR wild type (EGFR WT) (P00533 25-1210): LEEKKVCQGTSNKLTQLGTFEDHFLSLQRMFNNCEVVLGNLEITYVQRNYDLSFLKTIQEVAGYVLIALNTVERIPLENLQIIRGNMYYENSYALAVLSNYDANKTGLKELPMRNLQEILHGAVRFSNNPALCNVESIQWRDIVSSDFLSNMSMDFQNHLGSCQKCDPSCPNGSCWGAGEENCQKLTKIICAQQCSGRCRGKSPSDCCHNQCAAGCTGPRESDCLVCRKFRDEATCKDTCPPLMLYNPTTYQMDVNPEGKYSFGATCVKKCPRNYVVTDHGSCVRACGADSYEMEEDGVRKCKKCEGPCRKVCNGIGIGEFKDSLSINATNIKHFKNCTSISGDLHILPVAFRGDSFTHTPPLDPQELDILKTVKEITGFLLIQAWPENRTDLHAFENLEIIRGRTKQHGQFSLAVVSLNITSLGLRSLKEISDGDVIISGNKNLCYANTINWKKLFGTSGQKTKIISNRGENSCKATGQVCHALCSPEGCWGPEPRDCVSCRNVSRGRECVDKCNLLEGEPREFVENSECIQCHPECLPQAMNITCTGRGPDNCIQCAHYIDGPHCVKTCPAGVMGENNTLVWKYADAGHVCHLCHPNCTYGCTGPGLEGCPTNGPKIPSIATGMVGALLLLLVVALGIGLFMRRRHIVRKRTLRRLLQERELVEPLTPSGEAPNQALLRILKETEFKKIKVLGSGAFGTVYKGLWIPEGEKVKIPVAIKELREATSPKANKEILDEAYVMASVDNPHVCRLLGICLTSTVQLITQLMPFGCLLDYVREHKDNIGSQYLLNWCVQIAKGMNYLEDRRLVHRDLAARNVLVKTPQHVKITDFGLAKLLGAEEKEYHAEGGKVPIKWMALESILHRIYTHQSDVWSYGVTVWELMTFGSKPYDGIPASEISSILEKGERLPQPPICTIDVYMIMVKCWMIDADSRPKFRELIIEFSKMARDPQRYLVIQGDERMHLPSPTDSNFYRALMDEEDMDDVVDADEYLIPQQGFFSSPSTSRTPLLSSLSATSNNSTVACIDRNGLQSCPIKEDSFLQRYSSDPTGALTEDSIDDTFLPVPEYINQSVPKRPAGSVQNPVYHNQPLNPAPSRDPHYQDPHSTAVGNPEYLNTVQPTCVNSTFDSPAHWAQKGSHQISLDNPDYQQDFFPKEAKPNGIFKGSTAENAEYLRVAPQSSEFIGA
Setting [2] is: cellular ErbB2 YVMA phosphorylation.
The mark [3] stands for this setting: cellular EGFR WT phosphorylation, EGF-stimulated.
[4] abbreviates: EGF-stimulated EGFR WT phosphorylation.

Each structure is given as a SMILES string.

Sequence of EGFR (P00533 25-1210): as above
Sequence of ErbB2 WT (P04626 23-1255): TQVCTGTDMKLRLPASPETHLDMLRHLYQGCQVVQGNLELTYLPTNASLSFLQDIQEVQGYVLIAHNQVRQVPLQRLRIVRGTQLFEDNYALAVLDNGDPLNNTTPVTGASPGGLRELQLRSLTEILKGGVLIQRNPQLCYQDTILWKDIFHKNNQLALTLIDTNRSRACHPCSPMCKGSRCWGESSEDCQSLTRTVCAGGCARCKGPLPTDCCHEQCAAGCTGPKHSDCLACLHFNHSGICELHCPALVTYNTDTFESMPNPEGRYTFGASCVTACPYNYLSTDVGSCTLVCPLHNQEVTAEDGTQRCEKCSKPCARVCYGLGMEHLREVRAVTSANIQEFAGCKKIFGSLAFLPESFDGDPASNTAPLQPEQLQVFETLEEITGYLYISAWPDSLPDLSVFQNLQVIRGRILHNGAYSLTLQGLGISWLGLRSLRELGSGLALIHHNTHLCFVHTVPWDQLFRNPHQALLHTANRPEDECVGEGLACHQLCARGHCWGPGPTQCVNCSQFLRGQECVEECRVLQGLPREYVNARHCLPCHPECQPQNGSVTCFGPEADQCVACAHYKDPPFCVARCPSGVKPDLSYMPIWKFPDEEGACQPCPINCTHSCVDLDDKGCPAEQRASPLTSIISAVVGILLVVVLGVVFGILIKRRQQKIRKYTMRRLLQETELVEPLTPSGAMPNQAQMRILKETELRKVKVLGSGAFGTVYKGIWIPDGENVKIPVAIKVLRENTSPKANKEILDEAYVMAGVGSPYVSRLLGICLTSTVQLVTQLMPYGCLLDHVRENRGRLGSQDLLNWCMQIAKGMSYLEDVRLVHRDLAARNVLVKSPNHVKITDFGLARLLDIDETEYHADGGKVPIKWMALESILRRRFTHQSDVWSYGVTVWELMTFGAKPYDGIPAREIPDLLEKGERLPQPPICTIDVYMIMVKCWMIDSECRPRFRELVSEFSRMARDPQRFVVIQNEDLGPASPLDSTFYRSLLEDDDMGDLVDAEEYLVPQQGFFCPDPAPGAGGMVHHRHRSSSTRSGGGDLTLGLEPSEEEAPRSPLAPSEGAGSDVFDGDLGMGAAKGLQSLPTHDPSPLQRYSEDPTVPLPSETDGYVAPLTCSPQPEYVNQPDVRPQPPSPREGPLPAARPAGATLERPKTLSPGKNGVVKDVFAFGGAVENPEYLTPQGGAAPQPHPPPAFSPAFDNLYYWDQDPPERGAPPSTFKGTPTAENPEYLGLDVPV

Turning to `C=CC(=O)N1C[C@H]2CC[C@@H]1C[C@@H]2c1ccc2ncnc(Nc3cc(C)c(Oc4cnc5c(c4)ncn5C)cc3F)c2n1` [Example 420], the IC50 – broadly, the concentration needed to halve the response being measured – is not below 10 µM against EGFR (EGFR enzyme assay), 0.289 µM on ErbB2 WT (ErbB2 WT enzyme assay), 0.0338 µM in data set [1] (setting [2]) and not below 5 µM against EGFR wild type (EGFR WT) (setting [3]). Also, the efflux ratio at 2 h, 1 µM at BCRP turned out to be 2.5.
Consider `C=CC(=O)N1[C@H](C)CN(c2ccc3ncnc(Nc4ccc(Oc5cc(F)c6c(c5)ncn6C)c(C)c4)c3n2)C[C@@H]1C` [Example 359], for which the IC50 is 3.37 µM against EGFR (EGFR enzyme assay), 0.0472 µM on ErbB2 WT (ErbB2 WT enzyme assay), 0.021 µM in data set [1] (setting [2]) and not below 5 µM against EGFR wild type (EGFR WT) (setting [3]). Moreover, the efflux ratio at 2 h, 1 µM on BCRP amounted to 14.4.
For `C=CC(=O)N1CCN(c2ccc3ncnc(Nc4ccc(Oc5ccn6ncnc6c5)c(C)c4F)c3n2)C[C@H]1C(C)C` [Example 267], the IC50 on EGFR (EGFR enzyme assay) was 8.97 µM; on ErbB2 WT (ErbB2 WT enzyme assay), 0.0458 µM; in data set [1] (setting [2]) it was 0.0298 µM; against EGFR wild type (EGFR WT) (setting [3]) it was 1.07 µM. For the same molecule, the efflux ratio at 2 h, 1 µM on BCRP amounted to 1.7.
With `C=CC(=O)N1CCN(c2ccc3ncnc(Nc4cc(C)c(Oc5ccc6c(c5)ncn6C)cc4F)c3n2)CC12CC2` [Example 340], the IC50 at EGFR (EGFR enzyme assay) was 0.881 µM; on ErbB2 WT (ErbB2 WT enzyme assay), 0.0195 µM; in data set [1] (setting [2]), 0.0196 µM; against EGFR wild type (EGFR WT) (setting [3]), 2.02 µM. For the same molecule, the efflux ratio at 2 h, 1 µM at BCRP is 8.9.
On to `C=CC(=O)N1C[C@H](c2ccc3ncnc(Nc4cc(C)c(Oc5ccc6c(c5)ncn6C)cc4F)c3n2)C[C@H]1C` [Example 192, 1-((2R,4R)-4-(4-((2-fluoro-5-methyl-4-((1-methyl-1H-benzo[d]imidazol-5-yl)oxy)phenyl)amino)pyrido[3,2-d]pyrimidin-6-yl)-2-methylpyrrolidin-1-yl)prop-2-en-1-one], for which the IC50 was not below 10 µM on EGFR (EGFR enzyme), 0.132 µM at ErbB2 WT (ErbB2 WT enzyme), 0.0221 µM in data set [1] (ErbB2 YVMA phosphorylation) and not below 5 µM on EGFR wild type (EGFR WT) (setting [4]). For the same molecule, the efflux ratio at 2 h, 1 µM at BCRP was determined as 2.1.
In the case of `C=CC(=O)N1CCN(c2ccc3ncnc(Nc4ccc(Oc5ccc6c(c5)ncn6C)c(C)c4)c3n2)CC1(C)C` [Example 103, 1-(2,2-dimethyl-4-(4-((3-methyl-4-((1-methyl-1H-benzo[d]imidazol-5-yl)oxy)phenyl)amino)pyrido[3,2-d]pyrimidin-6-yl)piperazin-1-yl)prop-2-en-1-one], the IC50 at EGFR (EGFR enzyme) is not below 10 µM; against ErbB2 WT (ErbB2 WT enzyme), 0.0029 µM; in data set [1] (ErbB2 YVMA phosphorylation), 0.0046 µM; against EGFR wild type (EGFR WT) (setting [4]), 1.32 µM. Also, the efflux ratio at 2 h, 1 µM on BCRP came out at 10.9.
In the case of `C=CC(=O)N1CCN(c2ccc3ncnc(Nc4ccc(Oc5ccc6c(c5)ncn6C)c(C)c4)c3n2)CC1` [Example 105, 1-(4-(4-((3-methyl-4-((1-methyl-1H-benzo[d]imidazol-5-yl)oxy)phenyl)amino)pyrido[3,2-d]pyrimidin-6-yl)piperazin-1-yl)prop-2-en-1-one], the IC50 stood at 0.68 µM at EGFR (EGFR enzyme), 0.0119 µM at ErbB2 WT (ErbB2 WT enzyme), 0.005 µM in data set [1] (ErbB2 YVMA phosphorylation) and 1.35 µM at EGFR wild type (EGFR WT) (setting [4]). Moreover, the efflux ratio at 2 h, 1 µM at BCRP is 31.6.
As for `C=CC(=O)N1CCC[C@@H](c2ccc3ncnc(Nc4ccc(Oc5ccc6c(c5)ncn6C)c(C)c4)c3n2)C1` (racemic) [Example 35, 1-(3-(4-((3-methyl-4-((1-methyl-1H-benzo[d]imidazol-5-yl)oxy)phenyl)amino)pyrido[3,2-d]pyrimidin-6-yl)piperidin-1-yl)prop-2-en-1-one], the IC50 was determined as 1.4 µM on EGFR (EGFR enzyme), 0.0062 µM against ErbB2 WT (ErbB2 WT enzyme), 0.0104 µM in data set [1] (ErbB2 YVMA phosphorylation) and 2.73 µM against EGFR wild type (EGFR WT) (setting [4]). Moreover, at BCRP, the efflux ratio at 2 h, 1 µM came to 2.7.
Consider `C=CC(=O)N1CCN(c2ccc3ncnc(Nc4ccc(Oc5ccc6c(c5)ncn6C)c(C(F)F)c4)c3n2)CC1` [Example 447], for which the IC50 on EGFR (EGFR enzyme assay) is not below 10 µM; on ErbB2 WT (ErbB2 WT enzyme assay) it was 0.0292 µM; in data set [1] (setting [2]), 0.0175 µM; against EGFR wild type (EGFR WT) (setting [3]), not below 5 µM. Further, the efflux ratio at 2 h, 1 µM at BCRP is 20.3.
In the case of `C=CC(=O)N1CCN(c2nc3c(Nc4ccc(Oc5ccn6ncnc6c5)c(C)c4F)ncnc3cc2OC)CC1` [Example 152, 1-(4-(4-((4-([1,2,4]triazolo[1,5-a]pyridin-7-yloxy)-2-fluoro-3-methylphenyl)amino)-7-methoxypyrido[3,2-d]pyrimidin-6-yl)piperazin-1-yl)prop-2-en-1-one], the IC50 at EGFR (EGFR enzyme) worked out at 1.04 µM; against ErbB2 WT (ErbB2 WT enzyme), 0.0373 µM; in data set [1] (ErbB2 YVMA phosphorylation), 0.0209 µM; against EGFR wild type (EGFR WT) (setting [4]), 0.613 µM. At BCRP, the efflux ratio at 2 h, 1 µM worked out at 17.5.
`C=CC(=O)N1C[C@@H]2C[C@H]1CN(c1ccc3ncnc(Nc4cc(Cl)c(Oc5ccc6c(c5)ncn6C)cc4F)c3n1)C2` [Example 248]: the IC50 at EGFR (EGFR enzyme) is not below 10 µM; at ErbB2 WT (ErbB2 WT enzyme), 0.108 µM; in data set [1] (ErbB2 YVMA phosphorylation), 0.0144 µM; against EGFR wild type (EGFR WT) (setting [4]) it was not below 5 µM. For the same molecule, at BCRP, the efflux ratio at 2 h, 1 µM turned out to be 15.2.
As for `C=CC(=O)N1C[C@H]2C[C@@H]1CN(c1ccc3ncnc(Nc4cc(C)c(Oc5cnc6c(c5)ncn6C)cc4F)c3n1)C2` [Example 353], the IC50 was not below 10 µM against EGFR (EGFR enzyme assay), 0.474 µM on ErbB2 WT (ErbB2 WT enzyme assay), 0.0495 µM in data set [1] (setting [2]) and not below 5 µM on EGFR wild type (EGFR WT) (setting [3]). Besides, the efflux ratio at 2 h, 1 µM on BCRP was found to be 17.2.
Take `C=CC(=O)N1CC[C@H]2CN(c3ccc4ncnc(Nc5cc(C)c(Oc6ccn7ncnc7c6)cc5F)c4n3)C[C@H]21` [Example 26, 1-((3aS,6aS)-5-(4-((4-([1,2,4]triazolo[1,5-a]pyridin-7-yloxy)-2-fluoro-5-methylphenyl)amino)pyrido[3,2-d]pyrimidin-6-yl)hexahydropyrrolo[3,4-b]pyrrol-1(2H)-yl)prop-2-en-1-one]: the IC50 is not below 10 µM against EGFR (EGFR enzyme), 0.121 µM on ErbB2 WT (ErbB2 WT enzyme), 0.0204 µM in data set [1] (ErbB2 YVMA phosphorylation) and not below 5 µM at EGFR wild type (EGFR WT) (setting [4]). Further, the efflux ratio at 2 h, 1 µM at BCRP is 8.3.
With `C=CC(=O)N1C[C@@H]2CN(c3ccc4ncnc(Nc5ccc(Oc6ccc7c(c6)ncn7C)c(C)c5F)c4n3)C[C@@H]21` [Example 323], the IC50 is not below 10 µM on EGFR (EGFR enzyme assay), 0.0364 µM on ErbB2 WT (ErbB2 WT enzyme assay), 0.0238 µM in data set [1] (setting [2]) and not below 5 µM against EGFR wild type (EGFR WT) (setting [3]). Also, the efflux ratio at 2 h, 1 µM on BCRP was found to be 6.7.
Take `C=CC(=O)N1C[C@H]2CN(c3ccc4ncnc(Nc5ccc(Oc6ccc7c(c6)ncn7C)c(C)c5)c4n3)C[C@H]21` [Example 116, 1-((1R,5S)-3-(4-((3-methyl-4-((1-methyl-1H-benzo[d]imidazol-5-yl)oxy)phenyl)amino)pyrido[3,2-d]pyrimidin-6-yl)-3,6-diazabicyclo[3.2.0]heptan-6-yl)prop-2-en-1-one]: the IC50 was found to be 2.58 µM against EGFR (EGFR enzyme), 0.0523 µM on ErbB2 WT (ErbB2 WT enzyme), 0.0102 µM in data set [1] (ErbB2 YVMA phosphorylation) and 1.58 µM at EGFR wild type (EGFR WT) (setting [4]). Moreover, at BCRP, the efflux ratio at 2 h, 1 µM was determined as 22.4.
On to `C=CC(=O)N1C[C@H]2C[C@@H]1CN(c1ccc3ncnc(Nc4cc(Cl)c(Oc5cnc6c(c5)ncn6C)cc4F)c3n1)C2` [Example 294], for which the IC50 at EGFR (EGFR enzyme assay) is not below 10 µM; at ErbB2 WT (ErbB2 WT enzyme assay), 1.17 µM; in data set [1] (setting [2]), 0.0222 µM; at EGFR wild type (EGFR WT) (setting [3]) it was not below 5 µM. Moreover, at BCRP, the efflux ratio at 2 h, 1 µM was 7.2.
As for `C=CC(=O)N1C[C@@H]2CN(c3ccc4ncnc(Nc5ccc(Oc6ccn7ncnc7c6)c(C)c5F)c4n3)C[C@@H]21` [Example 318], the IC50 at EGFR (EGFR enzyme assay) was determined as 1.38 µM; against ErbB2 WT (ErbB2 WT enzyme assay) it was 0.0473 µM; in data set [1] (setting [2]), 0.0298 µM; at EGFR wild type (EGFR WT) (setting [3]), 2.05 µM. In addition, the efflux ratio at 2 h, 1 µM at BCRP was found to be 12.8.
As for `C=CC(=O)N1CCN(c2ccc3ncnc(Nc4cc(Cl)c(Oc5ccn6ncnc6c5)cc4F)c3n2)C[C@@H]1COC` [Example 346], the IC50 against EGFR (EGFR enzyme assay) is 1.37 µM; against ErbB2 WT (ErbB2 WT enzyme assay), 0.0143 µM; in data set [1] (setting [2]), 0.0154 µM; against EGFR wild type (EGFR WT) (setting [3]) it was 1.44 µM. On BCRP, the efflux ratio at 2 h, 1 µM was determined as 14.2.
The matching figures for `C=CC(=O)N1C[C@H]2C[C@@H]1CN(c1ccc3ncnc(Nc4cc(Cl)c(Oc5ccn6ncnc6c5)cc4F)c3n1)C2` [Example 292]: not below 10 µM, 0.0755 µM, 0.071 µM, not below 5 µM and 15.6.
Take `C=CC(=O)N1C2CC1CN(c1ccc3ncnc(Nc4ccc(Oc5ccn6ncnc6c5)c(C)c4F)c3n1)C2` [Example 47, 1-(3-(4-((4-([1,2,4]triazolo[1,5-a]pyridin-7-yloxy)-2-fluoro-3-methylphenyl)amino)pyrido[3,2-d]pyrimidin-6-yl)-3,6-diazabicyclo[3.1.1]heptan-6-yl)prop-2-en-1-one]: the IC50 stood at 3.72 µM against EGFR (EGFR enzyme), 0.0609 µM against ErbB2 WT (ErbB2 WT enzyme), 0.0137 µM in data set [1] (ErbB2 YVMA phosphorylation) and 2.13 µM on EGFR wild type (EGFR WT) (setting [4]). For the same molecule, at BCRP, the efflux ratio at 2 h, 1 µM worked out at 9.6.
On to `C=CC(=O)N1CCN(c2ccc3ncnc(Nc4ccc(Oc5ccn6ncnc6c5)c(Cl)c4)c3n2)CC1` [Example 97, 1-(4-(4-((4-([1,2,4]triazolo[1,5-a]pyridin-7-yloxy)-3-chlorophenyl)amino)pyrido[3,2-d]pyrimidin-6-yl)piperazin-1-yl)prop-2-en-1-one], for which the IC50 worked out at 0.344 µM at EGFR (EGFR enzyme), 0.0032 µM against ErbB2 WT (ErbB2 WT enzyme), 0.0032 µM in data set [1] (ErbB2 YVMA phosphorylation) and 0.413 µM against EGFR wild type (EGFR WT) (setting [4]). Moreover, the efflux ratio at 2 h, 1 µM at BCRP worked out at 47.

For the origin of these results see patent US12447153B2, “HER2 mutation inhibitors” (Array BioPharma Inc., priority 2021, dated 2025).
